Laboratory results as given in ChEMBL document CHEMBL3039007, “Structure-based identification of OATP1B1/3 inhibitors” (Mol Pharmacol, 2013).
Positions of bridges follow the written chain, without caps; N, C: chain ends. Non-standard residues stand in square brackets, D forms with d. Residues, ends and D or L forms follow the SMILES beside them. *: point of attachment. Ileψ(thiazoline)Cys = CC[C@H](C)[C@H](N)C1=N[C@H](C(=O)*)CS1; dOrn = NCCC[C@@H](N)C(=O)O

What was measured:
[1] = target: T1, Solute carrier organic anion transporter family member 1B3 (Homo sapiens, UniProt Q9NPD5); conditions: chinese hamster, cho, 10 µM
T1 sequence (Q9NPD5 whole entry): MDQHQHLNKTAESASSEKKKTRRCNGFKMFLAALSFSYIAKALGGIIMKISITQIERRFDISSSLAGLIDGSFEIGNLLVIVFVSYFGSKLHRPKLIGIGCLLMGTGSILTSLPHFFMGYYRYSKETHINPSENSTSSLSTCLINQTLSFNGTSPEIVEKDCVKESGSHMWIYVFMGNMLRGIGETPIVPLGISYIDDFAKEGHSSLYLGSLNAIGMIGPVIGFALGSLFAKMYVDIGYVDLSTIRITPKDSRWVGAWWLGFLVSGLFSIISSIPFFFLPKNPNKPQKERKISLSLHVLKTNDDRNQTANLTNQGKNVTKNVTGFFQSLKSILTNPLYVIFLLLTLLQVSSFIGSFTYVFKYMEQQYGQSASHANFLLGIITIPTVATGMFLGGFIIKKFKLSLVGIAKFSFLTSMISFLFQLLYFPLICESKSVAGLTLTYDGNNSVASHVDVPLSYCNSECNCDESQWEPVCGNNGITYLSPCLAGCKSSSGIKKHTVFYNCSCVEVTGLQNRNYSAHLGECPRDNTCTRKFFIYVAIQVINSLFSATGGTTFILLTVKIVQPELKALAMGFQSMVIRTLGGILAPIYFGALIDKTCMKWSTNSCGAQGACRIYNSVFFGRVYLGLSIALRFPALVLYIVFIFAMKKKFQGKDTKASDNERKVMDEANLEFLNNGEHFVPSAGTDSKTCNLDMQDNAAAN

[2] = target: T2, Solute carrier organic anion transporter family member 1B1 (Homo sapiens, UniProt Q9Y6L6); conditions: chinese hamster, cho, 10 µM
T2 sequence (Q9Y6L6 whole entry): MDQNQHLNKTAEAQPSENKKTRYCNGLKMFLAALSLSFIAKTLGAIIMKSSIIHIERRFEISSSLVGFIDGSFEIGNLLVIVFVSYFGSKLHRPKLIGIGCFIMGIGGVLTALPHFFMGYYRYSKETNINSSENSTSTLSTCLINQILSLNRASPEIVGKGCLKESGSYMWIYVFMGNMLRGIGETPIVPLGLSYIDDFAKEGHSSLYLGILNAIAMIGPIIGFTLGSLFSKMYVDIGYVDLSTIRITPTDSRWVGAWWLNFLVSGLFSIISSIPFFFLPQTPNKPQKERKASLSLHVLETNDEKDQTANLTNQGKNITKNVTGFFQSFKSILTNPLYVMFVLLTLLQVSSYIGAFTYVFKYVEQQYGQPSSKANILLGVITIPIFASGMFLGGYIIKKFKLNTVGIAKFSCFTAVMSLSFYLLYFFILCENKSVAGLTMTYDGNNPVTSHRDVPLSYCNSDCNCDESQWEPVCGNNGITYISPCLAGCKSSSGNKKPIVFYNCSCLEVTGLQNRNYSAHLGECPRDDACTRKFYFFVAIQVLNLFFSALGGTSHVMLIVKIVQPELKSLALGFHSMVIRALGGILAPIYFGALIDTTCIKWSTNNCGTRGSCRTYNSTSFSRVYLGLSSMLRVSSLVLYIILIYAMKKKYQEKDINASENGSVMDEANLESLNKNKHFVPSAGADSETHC

Row | Compound | residual activity [1] [%] | residual activity [2] [%]
1 | COc1ccc2cc(CCC(C)=O)ccc2c1 [NABUMETONE] | 110.7 | 203
2 | C=CC(N)CCC(=O)O (stereo unspecified) [VIGABATRIN] | 94.41 | 78.69
3 | O=c1oc2cc(O)ccc2s1 [TIOXOLONE] | 76.34 | 67.3
4 | O=C(O)Cc1cc(I)c(Oc2cc(I)c(O)c(I)c2)c(I)c1 [TETRAC] | 71.42 | 33.41
5 | COc1cccc(-c2cc(=O)c3ccc(OC)cc3o2)c1 [7,3'-DIMETHOXYFLAVONE] | 101.6 | 98.64
6 | Cl.c1ccc([C@H]2CN3CCSC3=N2)cc1 [LEVAMISOLE HYDROCHLORIDE] | 102.9 | 121.8
7 | C#C[C@]1(O)CC[C@H]2[C@@H]3CCC4=CC(=O)CC[C@@H]4[C@H]3CC[C@@]21C [NORETHINDRONE] | 109.8 | 91.27
8 | O=C(O)COc1ccc(Cl)cc1Cl [2,4-DICHLOROPHENOXYACETIC ACID] | 104.1 | 111.6
9 | CC(Cc1cccc(C(F)(F)F)c1)NCCOC(=O)c1ccccc1.Cl (stereo unspecified) [BENFLUOREX HYDROCHLORIDE] | 87.71 | 93.54
10 | Cn1c(=O)c2[nH]cnc2n(C)c1=O.O [THEOPHYLLINE] | 72.46 | 90.11
11 | C=C1CC[C@@H]2[C@](C)(CO)[C@H](O)CC[C@@]2(C)[C@@H]1C/C=C1/C(=O)OC[C@H]1O [ANDROGRAPHOLIDE] | 84.72 | 80.16
12 | CCC(Cc1c(I)cc(I)c(N)c1I)C(=O)O (stereo unspecified) [IOPANOIC ACID] | 59.57 | 31.11
13 | C/C1=C\CC/C(C)=C/CC(C)(C)/C=C/C1 [ALPHA-HUMULONE] | 109.1 | 112.4
14 | Cc1ncc([N+](=O)[O-])n1CC(C)O (stereo unspecified) [SECNIDAZOLE] | 92.29 | 132.9
15 | O=C(O)c1cn(C2CC2)c2cc(N3CCNCC3)c(F)cc2c1=O [CIPROFLOXACIN] | 112.4 | 105.3
16 | O=C(O)CCCOc1ccc(Cl)cc1Cl | 112 | 123.3
17 | CN(C)[C@@H]1C(O)=C(C(N)=O)C(=O)[C@@]2(O)C(O)=C3C(=O)c4c(O)cccc4[C@@](C)(O)[C@H]3C[C@@H]12.Cl [TETRACYCLINE HYDROCHLORIDE] | 97.72 | 118.1
18 | Cc1cc(=O)c2c(O)cc(O)c(C)c2o1 [ISOEUGENITOL] | 101 | 129.2
19 | CN(C)CCCN1c2ccccc2CCc2ccc(Cl)cc21.Cl [CLOMIPRAMINE HYDROCHLORIDE] | 78.81 | 43.58
20 | Cc1[nH]c2ccccc2c1CN(C)C [2-METHYL GRAMINE] | 80.09 | 39.17
21 | CC(=O)OCC1=C(C(=O)[O-])N2C(=O)[C@@H](NC(=O)CSc3ccncc3)[C@H]2SC1.[Na+] [CEPHAPIRIN SODIUM] | 94.33 | 85.65
22 | COc1c(Cl)ccc(Cl)c1C(=O)O [3,6 DICHLOROMETHOXYBENZOIC ACID] | 155.5 | 88.8
23 | COc1cc(C/C=C/c2ccccc2)c(OC)cc1O [VIOLASTYRENE] | 47.88 | 27.49
24 | Cc1cc(=O)oc2cc(O)c(O)cc12 [4-METHYLESCULETIN] | 110.1 | 121.7

Row | Compound | residual activity [1] [%] | residual activity [2] [%]
25 | Oc1ncnc2[nH]ncc12 [ALLOPURINOL] | 84.36 | 68.8
26 | COc1c2ccoc2c(OC)c2oc(=O)ccc12 [ISOPIMPINELLIN] | 29.02 | 84.51
27 | Cc1ccccc1N1C(=O)c2cc(S(N)(=O)=O)c(Cl)cc2NC1C (stereo unspecified) [METOLAZONE] | 66.79 | 62.42
28 | N[C@@H](C(=O)N[C@@H]1C(=O)N2C(C(=O)O)=C(Cl)CS[C@H]12)c1ccccc1 [CEFACLOR ANHYDROUS] | 114.4 | 84.74
29 | Cc1nc(C)c(Cl)c(O)c1Cl [CLOPIDOL] | 91.88 | 154.4
30 | c1ccc(-c2ccc(C(c3ccccc3)n3ccnc3)cc2)cc1 (stereo unspecified) [BIFONAZOLE] | 115.7 | 121.1
31 | CC(=O)Oc1cccc(O)c1 [RESORCINOL MONOACETATE] | 68.79 | 102.7
32 | COc1cc(/C=C/C(=O)O)ccc1O [FERULATE] | 82.81 | 60.24
33 | Cl.NCCCCC(=O)O [5-AMINOPENTANOIC ACID HYDROCHLORIDE] | 62.53 | 59.53
34 | COc1ccc2c(c1)OCC(Cc1ccc(OC)c(OC)c1)C2=O (stereo unspecified) [DEOXYSAPPANONE B TRIMETHYL ETHER] | 150.7 | 174.5
35 | CN(C)[C@@H]1C(O)=C(C(N)=O)C(=O)[C@@]2(O)C(O)=C3C(=O)c4c(O)cccc4[C@@](C)(O)[C@H]3[C@H](O)[C@@H]12 [OXYTETRACYCLINE] | 95.2 | 61.86
36 | CN(C)CCC=C1c2ccccc2C=Cc2ccccc21.Cl [CYCLOBENZAPRINE HYDROCHLORIDE] | 102.1 | 85.24
37 | CC[C@H](C)[C@H](N)C1=N[C@H](C(=O)N[C@@H](CC(C)C)C(=O)N[C@H](CCC(=O)O)C(=O)N[C@H](C(=O)N[C@H]2CCCCNC(=O)[C@H](CC(N)=O)NC(=O)[C@@H](CC(=O)O)NC(=O)[C@H](Cc3cnc[nH]3)NC(=O)[C@@H](Cc3ccccc3)NC(=O)[C@H]([C@@H](C)CC)NC(=O)[C@@H](CCCN)NC2=O)[C@@H](C)CC)CS1 [BACITRACIN] ({Ileψ(thiazoline)Cys}-L[dE]IK[dOrn]I[dF]H[dD]N; lactam 4-C) | 77.52 | 78.2
38 | COc1cc(-c2coc3cc(O[C@@H]4O[C@H](CO)[C@@H](O)[C@H](O)[C@H]4O)c(OC)c(O)c3c2=O)cc(O)c1OC [IRIDIN] | 90.79 | 114.5
39 | CCOC(=O)C1(O)Oc2cc(OC)cc(OC)c2C(=O)C1c1ccccc1 (stereo unspecified) [2-ETHOXYCARBONYL-2-HYDROXY-5,7-DIMETHOXYISOFLAVANONE] | 104 | 106.9
40 | CCCC(C)C1(CC)C(=O)NC(=O)NC1=O (stereo unspecified) [PENTOBARBITAL] | 94.07 | 94.35
41 | CC(=O)[C@@]1(O)CC[C@H]2[C@@H]3C[C@H](C)C4=CC(=O)C=C[C@]4(C)[C@@]3(F)[C@@H](O)C[C@@]21C [FLUOROMETHOLONE] | 105.7 | 85.71
42 | CC[C@H](C)[C@H](N)C(=O)N1CCC[C@H]1C(=O)N[C@H](C(=O)O)[C@@H](C)CC [DIPROTIN A] | 116.8 | 108.3
43 | CCCC(=O)Nc1ccc(OCC(O)CNC(C)C)c(C(C)=O)c1.Cl (stereo unspecified) [ACEBUTOLOL HYDROCHLORIDE] | 93.16 | 74.42
44 | CC(=O)OCC1=C(C(=O)[O-])N2C(=O)[C@@H](NC(=O)CCC[C@@H](N)C(=O)O)[C@H]2SC1.[Na+] | 103.2 | 89.78
45 | Cc1cn([C@H]2C[C@H](N=[N+]=[N-])[C@@H](CO)O2)c(=O)[nH]c1=O [ZIDOVUDINE] | 95.75 | 134
46 | CC(C)=CC1C(CO)C1(C)C (stereo unspecified) [CHRYSANTHEMYL ALCOHOL] | 105.2 | 106.8
47 | Cc1ccc2cc3c(ccc4ccccc43)c3c2c1CC3 [3-METHYLCHOLANTHRENE] | 78.58 | 86.73
48 | O=C(CCCCCCCCCCCCC1CCCC1)Nc1ccc(S(=O)(=O)c2ccc(NC(=O)CCCCCCCCCCCCC3CCCC3)cc2)cc1 [CHAULMOSULFONE] | 75.08 | 65.99
